Where two headings read alike, the source gives them in different places.
What was measured:
Type in all cases: cell-based, mouse
[1] = system: TEL-KIT/T670I-BaF3; experiment: Proliferation of TEL-KIT/T670I-BaF3 cells (CCK-8); conditions: for GI50: Mus musculus, read-out: GI50 TEL-KIT/T670I-BaF3
Source text: (§1) Compounds as provided herein were further evaluated for their inhibitory effects on proliferation of cancer cells by testing their effects on growth of cancer cells. In this example the following cells were used: primary mouse B cells BaF3 (purchased from ATCC), GIST-T1 cells of the human gastrointestinal stromal tumor cell line (expressing wild-type KIT gene) (purchased from Cosmo Bio Co., Ltd. (Japan)). The present lab further constructed and used the following: mouse Tel-Kit-BaF3 (stably expressing KIT wild-type kinase), mouse Tel-Kit/T670I-BaF3 (stably expressing KIT T670I mutant kinase), mouse Tel-Kit/V559A-BaF3 (stably expressing KIT V559A mutant kinase), mouse Tel-Kit/V559D-BaF3 (stably expressing KIT V559D mutant kinase), mouse Tel-Kit/V559G-BaF3 (stably expressing KIT V559G mutant kinase), mouse Tel-Kit/V560D-BaF3 (stably expressing KIT V560D mutant kinase), mouse Tel-Kit/L576P-BaF3 (stably expressing KIT L576P mutant kinase), mouse Tel-Kit/V654A-BaF3 (stably expressing KIT V654A mutant kinase), mouse Tel-Kit/V654A/V559D-BaF3 (stably expressing KIT V654A V559D mutant kinase), mouse Tel-Kit/T670E-BaF3 (stably expressing KIT T670E mutant kinase), mouse Tel-Kit/T670I/V559D-BaF3 (stably expressing KIT T670I V559D mutant kinase), mouse Tel-Kit/S709F-BaF3 (stably expressing KIT S709F mutant kinase), mouse Tel-Kit/D816E-BaF3 (stably expressing KIT D816E mutant kinase), mouse Tel-Kit/D816H-BaF3 (stably expressing KIT D816H mutant kinase), mouse Tel-Kit/D820E-BaF3 (stably expressing KIT D820E mutant kinase), mouse Tel-Kit/D820G-BaF3 (stably expressing KIT D820G mutant kinase), mouse Tel-Kit/D820Y-BaF3 (stably expressing KIT D820Y mutant kinase), mouse Tel-Kit/N822K-BaF3 (stably expressing KIT N822K mutant kinase), mouse Tel-Kit/Y823D-BaF3 (stably expressing KIT Y823D mutant kinase), mouse Tel-Kit/A829P-BaF3 (stably expressing KIT A829P mutant kinase), GIST-T1-T670I cells of the human gastrointestinal stromal tumor cell line (expressing KIT-T670I mutant gene). The above cell lines were constructed by: amplifying respectively the sequences of human KIT and various mutant kinase regions of KIT via PCR, inserting the fragments respectively into MSCV-Puro vectors having a N-terminal TEL fragment and/or a NPM fragment and/or a TPR fragment (purchased from Clontech), transfecting mouse BaF3 cells with the vectors by means of retrovirus to obtain stably transfected cells, removing the growth factor IL-3, and thereby eventually obtaining cell lines that depend on the transferred protein KIT or various mutants of KIT. The GIST-T1-T670I (expressing C-KIT-T670I mutant gene) cell line was constructed by our laboratory as follows: designing sgRNA that targeted a region around T670 of the KIT gene with CRISPR Design Tool (website: crispr.mit.edu, Zhang Feng Lab), cloning it into pSpCas9(BB)-2A-Puro vector; co-transfecting cells with the resultant vector and a single-stranded oligonucleotide having T670I site mutation that is near to T670, subjecting the resultant to antibiotics screening, followed by dilution, and monocellular culture in a 96-well plate; validating the site T670 of the cells by sequence detection via Sanger sequencing.

[2] = system: BaF3; experiment: Proliferation of parental BaF3 cells (CCK-8); conditions: for GI50: Mus musculus, read-out: GI50 BaF3
Source text: as §1
(§2) The cells after incubation were detected using CCK-8 (purchased from MedChem Express, Shanghai, China) cell viability assay kit (CCK-8 may be reduced by dehydrogenase in living cells to a highly water-soluble yellow formazan product, and the amount of the resultant formazan is proportional to the number of living cells), the number of living cells were quantified with a microplate reader, and GI50 of the compounds and the control compounds were calculated (the results shown in Table 2 and Table 3).

[3] = system: TEL-KIT-BaF3 (stably expressing KIT wild-type kinase); experiment: Proliferation of TEL-KIT-BaF3 cells (CCK-8); conditions: for GI50: Mus musculus, read-out: GI50 TEL-KIT-BaF3
Source text: as §1, §2

[4] = BaF3 parent cells, 72 hours, CCK-8

GI50 ([1]; 72 hours, CCK-8) | GI50 ([3]; KIT wild-type, 72 hours, CCK-8) | Structure (SMILES) | inhibitory effect against mutant KIT-T670I [1] | GI50 ([1]; 72 h) | GI50 ([2]; BaF3, 72 h) | inhibitory effect against wild-type KIT [3] | GI50 ([3]; 72 h) | GI50 [2, 4] | selectivity against BaF3 ([2]; KIT and KIT-T670I relative to parent BaF3 cells)
– | – | COc1cc2nccc(Oc3ccc(NC(=O)Cc4ccccc4)cn3)c2cc1OC [Comparative Example 1, N-(6-((6,7-dimethoxyquinolin-4-yl)oxy)pyridin-3-yl)-2-phenylacetamide, reference compound] | no significant inhibitory effects | > 10000 nM | > 10000 nM | no significant inhibitory effects | > 10000 nM | – | –
4610 nM | 2350 nM | COc1cc2nccc(Oc3ccc(C(=O)NCc4cccc(C(F)(F)F)c4)cc3)c2cc1OC [Comparative Example 3, N-(3-(trifluoromethyl)benzyl)-4-((6,7-dimethoxyquinolin-4-yl)oxy)benzamide, reference compound] | substantially vanished | – | – | substantially vanished | – | ≥ 10000 nM | –
844 nM | 183 nM | COc1cccc(CC(=O)Nc2ccc(Oc3ncnc4cc(OC)c(OC)cc34)cc2)c1 [Comparative Example 4, N-(4-((6,7-dimethoxyquinazolin-4-yl)oxy)phenyl)-2-(3-methoxyphenyl)acetamide, reference compound] | certain inhibitory activity but lower than that of the present invention compounds | – | – | certain inhibitory activity but lower than that of the present invention compounds | – | 3120 nM | weaker selectivity against BaF3
– | – | COc1cc2nccc(Oc3ccc(NC(=O)Cc4cccc(C(F)(F)F)c4)cc3)c2cc1OC [Example 8, N-(4-((6,7-dimethoxyquinolin-4-yl)oxy)phenyl)-2-(3-(trifluoromethyl)phenyl)acetamide] | – | 1 nM | 1890 nM | – | 20 nM | – | –
– | – | COc1cc2nccc(Oc3ccc(NC(=O)Cc4ccc(C(F)(F)F)cc4)cc3)c2cc1OC [Example 9, N-(4-((6,7-dimethoxyquinolin-4-yl)oxy)phenyl)-2-(4-(trifluoromethyl)phenyl)acetamide] | – | 11 nM | 2160 nM | – | 22 nM | – | –
– | – | COc1cc2nccc(Oc3ccc(NC(=O)Cc4ccc(C)c(C)c4)cc3)c2cc1OC [Example 11, N-(4-((6,7-dimethoxyquinolin-4-yl)oxy)phenyl)-2-(3,4-dimethylphenyl)acetamide] | – | 15 nM | 6420 nM | – | 27 nM | – | –
– | – | COc1cc2nccc(Oc3ccc(NC(=O)Cc4ccc(F)c(C(F)(F)F)c4)cc3)c2cc1OC [Example 13, N-(4-((6,7-dimethoxyquinolin-4-yl)oxy)phenyl)-2-(4-fluoro-3-(trifluoromethyl)phenyl)acetamide] | – | 13 nM | 1030 nM | – | 24 nM | – | –
– | – | COc1cc2nccc(Oc3ccc(NC(=O)Cc4ccc(Cl)c(C(F)(F)F)c4)c(F)c3)c2cc1OC [Example 24, N-(2-fluoro-4-((6,7-dimethoxyquinolin-4-yl)oxy)phenyl)-2-(4-chloro-3-(trifluoromethyl)phenyl)acetamide] | – | 18 nM | 3210 nM | – | 49 nM | – | –
10 nM | 110 nM | COc1cc2nccc(Oc3ccc(NC(=O)NCCCc4ccccc4)cc3)c2cc1OC [Example 30, 1-(4-((6,7-dimethoxyquinolin-4-yl)oxy)phenyl)-3-(3-phenylpropyl)urea] | – | – | – | – | – | 2910 nM | –
16 nM | 97 nM | COc1cc2nccc(Oc3ccc(NC(=O)NCCCc4cccc(F)c4)cc3)c2cc1OC [Example 31, 1-(4-((6,7-dimethoxyquinolin-4-yl)oxy)phenyl)-3-(3-(3-fluorophenyl)propyl)urea] | – | – | – | – | – | 2480 nM | –
15 nM | 68 nM | COc1cc2nccc(Oc3ccc(NC(=O)NCCCc4ccc(F)cc4)cc3)c2cc1OC [Example 32, 1-(4-((6,7-dimethoxyquinolin-4-yl)oxy)phenyl)-3-(3-(4-fluorophenyl)propyl)urea] | – | – | – | – | – | 3850 nM | –
– | – | COc1cc2nccc(Oc3ccc(NC(=O)Cc4ccc(Cl)c(C(F)(F)F)c4)cc3Cl)c2cc1OC [Example 38, N-(3-chloro-4-((6,7-dimethoxyquinolin-4-yl)oxy)phenyl)-2-(4-chloro-3-(trifluoromethyl)phenyl)acetamide] | – | 56 nM | 9450 nM | – | 78 nM | – | –
